Measured values as given in paper PMC6536413, “Application of ultrasound‐guided cholecystocentesis to the evaluation of the metabolite profiling in bile of dogs and cynomolgus monkeys” (Pharmacology Research & Perspectives, 2019).
Marks after values point to notes of the source that are not given here.

Assays:
[1] = Concentration of ATV and metabolites in monkey bile obtained by BDC and UCC (LC-MS/MS); assay type: in vivo, cynomolgus macaques; settings: UCC monkeys, 4‐5 h, 30 mg/kg ATV orally, ± standard deviation
[2] = Plasma pharmacokinetics of ATV and metabolites in BDC and UCC monkeys (LC-MS/MS); assay type: in vivo, cynomolgus macaques; settings: for plasma concentration: both the UCC and BDC monkey plasma samples, 30 mg/kg ATV orally; for Cmax / Tmax / AUC: male, cynomolgus, cynomolgus monkey, plasma, po, 30 mg/kg, 30 mg/kg oral dose of ATV, ± standard deviation; for AUC: read-out: AUC0‐24h
Experimental: (§1) Plasma and bile samples were collected. For bile collection monkeys were sedated with ketamine (8 mg/kg) and dexmedetomidine (0.05 mg/kg) intramuscularly. At the conclusion of the procedure, sedation was reversed with atipamezole (0.15 mg/kg) intramuscularly. All other procedures were the same as for the dog.
(§2) Plasma samples were collected from dogs and monkeys at 0.5, 1, 2, 4, 6, and 24 hours postdose. Bile samples were collected at 0‐2 hours, 2‐4 hours, 4‐6 hours, 6‐8 hours, and 8‐24 hours intervals. Both plasma and bile samples were stored at −20°C until analysis.
(§3) Standard curves and quality control (QC) samples defining the dynamic range of the bioanalytical method were prepared in commercially available control plasma and processed in the same fashion as the test samples. When dilutions were required, an aliquot of the sample was diluted into control plasma. […] The supernatant was then separated from the precipitated proteins after a 10‐minute centrifugation at 3500 rpm (2109× g) at 10°C and transferred to an autosampler 96‐well plate. An aliquot (10 µL) was injected onto the ultrahigh performance liquid chromatography (UHPLC) column for LC‐MS/MS‐based analysis. Samples from individual animals were not pooled prior to quantitative analysis.
(§4) The UHPLC system Nexera (Shimadzu, Japan) consisted of two pumps (LC30AD), a column heater (CTO‐30A), and an autosampler (SIL‐30AC) equipped with a cooling compartment that maintained samples at 15°C during analysis. The analytical column used was a BEH C18 2.1 mm × 50 mm, 1.7 µm (Waters Corporation, Milford, MA) at 50°C. The mobile phase, which consisted of 0.1% formic acid in water (A) and acetonitrile (B), was delivered at a flow rate of 0.6 mL/min. The initial conditions were 100% aqueous followed by 1‐minute gradient to 100% acetonitrile then hold for 0.4 minutes and back to initial conditions.
(§5) The UHPLC was interfaced to a Finnigan TSQ Quantum Ultra LC‐MS/MS tandem mass spectrometer (Thermo Electron Corporation) equipped with heated electrospray ionization (HESI‐II) interface operating in the positive ionization mode. Ultrahigh‐purity nitrogen was used as the sheath and auxiliary gases at flow rates of 55 L/h for sheath and 25 L/h for auxiliary. The desolvation temperature was 300°C and the source temperature was 350°C. The detection of each analyte was achieved through selected reaction monitoring. […]
(§6) The peak concentration (Cmax) and time for Cmax (Tmax) were recorded directly from experimental observations. The area under the curve from time 0 to 24 hours (AUC0‐24h) was calculated using a combination of linear and log trapezoidal summations.

[3] = Concentration of ATV and metabolites in monkey bile obtained by BDC and UCC (LC-MS/MS); assay type: in vivo, cynomolgus macaques; settings: for Concentration in bile: BDC monkeys, 30 mg/kg ATV orally; for concentration at 24 h: male, cynomolgus, cynomolgus monkey, bile, po, 30 mg/kg
Experimental: as §1, §2, §3, §4, §5

[4] = Metabolite profile of ATV in dog bile (LC-MS, UV 254 nm); assay type: in vivo, beagle dogs; settings: based on the UV chromatograms
Experimental: Dog bile samples obtained by cholecystocentesis were pooled across animals (n = 3). Samples were mixed with an equal volume of citrate buffer (100 mmol/L) to make the final buffer concentration of 50 mmol/L. The mixture was mixed by vortexing for 1 minute and then centrifuged at 12 000× g for 15 minutes. An aliquot (5‐10 μL) of the supernatant was injected onto the UHPLC column for LC‐MS/MS‐based analysis.
The metabolite profile was obtained using LTQ‐Orbitrap coupled with Accela UHPLC and PDA (ThermoScientific, San Jose, CA) and a CTC PAL autosampler equipped with a cooling stack that maintained samples at 4°C during analysis. A 20‐minute UHPLC method was developed. The column was Acquity UPLC HSS T3 (Waters, Milford, MA) 2.1 × 150 mm, 1.8 µm. The column was maintained at a temperature of 55°C. The mobile phase consisted of 0.1% formic acid in water (solvent A) and 0.1% formic acid in acetonitrile (solvent B) at a flowrate of 600 µL/min with the following linear gradient conditions: 5% A for 0.5 minutes, 20‐60% B over 14 minutes, 95% B over 3 minutes, and 5% B isocratic for 2 minutes. Instrument settings were as follows: m/z range: 100 to 1000, capillary temperature was set at 280°C, nitrogen sheath gas flow rate 80 (arbitrary units), auxiliary gas 20, spray voltage 4.0 kV, and tube lens offset 80 V. In addition, UV wavelength was monitored at 254 nm.

[5] = Metabolite profile of ATV in monkey bile (LC-MS, UV 254 nm); assay type: in vivo, cynomolgus macaques; settings: UV chromatograms
[6] = Plasma pharmacokinetics of ATV and metabolites in BDC and UCC dogs (LC-MS/MS); assay type: in vivo; settings: male, beagle, dog, po, 40 mg/kg, 40 mg/kg oral dose of ATV, ± standard deviation; for AUC: read-out: AUC0‐24h
Experimental: (§7) Plasma samples were collected at 0.5, 1, 2, 4, 6, and 24 hours postdose via cephalic vein or indwelling cephalic catheter. At the 6‐ and 24‐hours postdose time points, dogs were sedated with propofol at 6 mg/kg through an indwelling cephalic catheter. The dogs were then positioned in a dorsal‐recumbency with head elevated. Heart rate, rhythm, and arterial oxygen saturation were monitored throughout the procedure. After shaving and aseptically preparing the abdominal skin immediately caudal to the xiphoid process, an ultrasound exam of the gallbladder and cranial abdomen was done using a Mylab30cv ultrasound system with 9‐3 MHz micro‐convex transducer (Esoate, Indianapolis, IN). A 21‐gauge, 1.5‐inch needle, attached to a 5‐mL syringe, was inserted percutaneously through the abdominal wall into the gallbladder lumen. Effort was made to completely empty the gallbladder by aspiration (typically, 2‐5 mL bile was obtained). The needle and syringe were withdrawn and the bile samples were immediately saved on dry ice for later analysis. Dogs were allowed to recover in their home cages. Both plasma and bile samples were stored at −20°C until analysis.
as §2, §3, §4, §5, §6

[7] = Concentration of ATV and metabolites in dog bile obtained by BDC and UCC (LC-MS/MS); assay type: in vivo, beagle dogs; settings: for Concentration in bile: BDC dogs, 40 mg/kg ATV orally, ± standard deviation; for concentration at 6 h / concentration at 24 h: male, beagle, dog, bile, po, 40 mg/kg
Experimental: as §7, §2, §3, §4, §5

[8] = 0‐2 h, n = 2 due to blocked/displaced cannulas
[9] = 6‐8 h, n = 2 due to blocked/displaced cannulas

Row | SMILES | Concentration in bile [1] [µM] | plasma concentration [2] | Concentration in bile [3, 8] [µmol/L] | Concentration in bile ([3]; 2‐4 h, ± standard deviation) [µmol/L] | Concentration in bile ([3]; 4‐6 h, ± standard deviation) [µmol/L] | Concentration in bile [3, 9] [µmol/L] | Concentration in bile ([3]; 8‐24 h, ± standard deviation) | concentration at 24 h [3] [µM] | Cmax ([2]; BDC monkeys (n = 4)) [µM] | Tmax ([2]; BDC monkeys (n = 4)) [h] | Cmax ([2]; UCC monkeys (n = 3)) [µM] | Tmax ([2]; UCC monkeys (n = 3)) [h] | AUC ([2]; BDC monkeys (n = 4)) [µM·h] | AUC ([2]; UCC monkeys (n = 3)) [µM·h] | abundance of metabolite in bile [4] | abundance of metabolite in bile [5] | Cmax ([6]; BDC dogs (n = 3)) [µM] | Tmax ([6]; BDC dogs (n = 3)) [h] | AUC ([6]; BDC dogs (n = 3)) [µM·h] | Cmax ([6]; UCC dogs (n = 3)) [µM] | also measured
1 | CC(C)c1c(C(=O)Nc2ccc(O)cc2)c(-c2ccccc2)c(-c2ccc(F)cc2)n1CC[C@@H]1C[C@@H](O)CC(=O)O1 [4‐OH ATV‐L, 4‐hydroxyatorvastatin lactone] | 9 ± 5 | below the limits of quantitation | 2 | 6 ± 3 | 4 ± 2 | 3 | 2 ^b μmol/L | 19 ± 3 |  |  |  |  |  |  |  |  |  |  |  |  | 
2 | CC(C)c1c(C(=O)Nc2ccccc2O)c(-c2ccccc2)c(-c2ccc(F)cc2)n1CC[C@@H](O)C[C@@H](O)CC(=O)O [2‐OH ATV, 2‐hydroxyatorvastatin] | 334 ± 70 |  | 112 | 317 ± 66 | 412 ± 302 | 306 | 303 ± 151 µmol/L | 586 ± 127 | 0.055 ± 0.02 | 9 ± 10.1 | 0.031 ± 0.018 | 2 ± 1.7 | 0.664 ± 0.347 | 0.057 ± 0.008 | major oxidative metabolites | major oxidative metabolites | 0.352 ± 0.28 | 2 | 0.667 ± 0.203 | 0.215 ± 0.095 | Tmax ([6]; UCC dogs (n = 3)): 1.7 ± 0.6 h; AUC ([6]; UCC dogs (n = 3)): 0.736 ± 0.066 µM·h; Concentration in bile ([7]; 0‐2 h): 256 ± 284 µM; Concentration in bile ([7]; 2‐4 h): 690 ± 296 µM; Concentration in bile ([7]; 4‐6 h): 337 ± 266 µM; Concentration in bile ([7]; 6‐8 h): 168 ± 134 µM; Concentration in bile ([7]; 8‐24 h): 27 ± 19 µM; concentration at 6 h [7]: 151 ± 53 µM; concentration at 24 h [7]: 63 ± 65 µM
3 | CC(C)c1c(C(=O)Nc2ccc(O)cc2)c(-c2ccccc2)c(-c2ccc(F)cc2)n1CC[C@@H](O)C[C@@H](O)CC(=O)O [4‐OH ATV, 4‐hydroxyatorvastatin] | 271 ± 185 | below the limits of quantitation | 56 | 180 ± 68 | 207 ± 116 | 140 | 181 ± 29 µmol/L | 594 ± 39 |  |  |  |  |  |  | major oxidative metabolites | major oxidative metabolites | 0.138 ± 0.12 | 2.7 ± 1.2 | 0.293 ± 0.038 | 0.082 ± 0.03 | Tmax ([6]; UCC dogs (n = 3)): 3.3 ± 1.2 h; AUC ([6]; UCC dogs (n = 3)): 0.381 ± 0.128 µM·h; Concentration in bile ([7]; 0‐2 h): 501 ± 522 µM; Concentration in bile ([7]; 2‐4 h): 1342 ± 583 µM; Concentration in bile ([7]; 4‐6 h): 862 ± 472 µM; Concentration in bile ([7]; 6‐8 h): 558 ± 356 µM; Concentration in bile ([7]; 8‐24 h): 184 ± 97 µM; concentration at 6 h [7]: 279 ± 60 µM; concentration at 24 h [7]: 262 ± 317 µM
4 | CC(C)c1c(C(=O)Nc2ccccc2O)c(-c2ccccc2)c(-c2ccc(F)cc2)n1CC[C@@H]1C[C@@H](O)CC(=O)O1 [2‐OH ATV‐L, 2‐hydroxyatorvastatin lactone] | 73 ± 19 |  | 36 | 93 ± 57 | 67 ± 35 | 52 | 18 ± 19 µmol/L | 147 ± 44 | 0.024 ± 0.006 | 4 ± 1.6 | 0.039 ± 0.029 | 1.3 ± 0.6 | 0.116 ± 0.045 | 0.035 ± 0.007 |  |  |  |  |  |  | 
